{
  "source": "paper PMC7861629",
  "about": "(Bosnian Journal of Basic Medical Sciences, 2021)",
  "key": {"[1]": {"conditions": "rat", "quoted_text": "The weight of the pieces applied was 25.2 ± 1.6 mg (mean ± standard deviation [SD]) and the amount of vancomycin in the collagen sponge pieces was 11.2 ± 0.7 mg (mean ± SD). For placebo group (n = 6), a 10 mm × 10 mm piece of placebo-containing collagen sponge was applied. The pocket on the sham surgery side was sutured with no sponge so as to provide for a control.\nWe administered 7.5 mg of vancomycin intraperitoneally to rats accompanied by a similar induction of s.c. infection; we measured the plasma levels in the same way as we did for the active arm.\nBlood samples (volume, 0.5 mL) for determination of vancomycin and haptoglobin levels were drawn from the jugular vein into a 0.5 mL heparinized syringe under isoflurane anesthesia. Samples were drawn from three animals in vancomycin group 0.5, 1, 2, and 4 h following inoculation on the 1st day to determine vancomycin and haptoglobin levels. Samples were also taken from all animals in placebo group on the 1st day 2 h following inoculation to determine haptoglobin level only. Samples from four animals in vancomycin group and two animals in placebo group were drawn on the 1st, 2nd, and 3rd day following inoculation. The final sample was drawn intracardially upon termination on day 4 following inoculation. The samples were centrifuged (12,000 rpm, 2 min) and the samples from days 1, 2, and 3 following inoculation were frozen at -20°C until analyzed. Vancomycin concentration in the blood as well as haptoglobin level (rat acute phase marker) were determined using a nephelometric method (Beckman Coulter, Indianapolis, IN, USA)."}, "[2]": {"conditions": "children, 1000 mg vancomycin powder during spinal deformity surgery; cited from earlier work", "procedure": "Following the application of 1000 mg of vancomycin powder during sur ..."}},
  "data": [
    {"smiles": "CN[C@H](CC(C)C)C(=O)N[C@H]1C(=O)N[C@@H](CC(N)=O)C(=O)N[C@H]2C(=O)N[C@H]3C(=O)N[C@H](C(=O)N[C@H](C(=O)O)c4cc(O)cc(O)c4-c4cc3ccc4O)[C@H](O)c3ccc(c(Cl)c3)Oc3cc2cc(c3O[C@@H]2O[C@H](CO)[C@@H](O)[C@H](O)[C@H]2O[C@H]2C[C@](C)(N)[C@H](O)[C@H](C)O2)Oc2ccc(cc2Cl)[C@H]1O", "note": "[vancomycin]", "values": [
      {"measurement": "AUC", "setting": "[1]; 7.5 mg vancomycin i.p., calculated from obtained levels", "result": 87.71, "unit": "µg·h/mL"},
      {"measurement": "vancomycin level after 24 h", "setting": "[1]; 7.5 mg vancomycin i.p., detected in one animal only, nephelometric method", "result": 0.2, "unit": "mg/L"},
      {"measurement": "expected AUC after 11.2 mg", "setting": "[1]; i.p., extrapolated from 7.5 mg dose to the sponge dose", "result": 130.9, "unit": "µg·h/mL"},
      {"measurement": "vancomycin level in fluid drained by subfascial drain, day 0", "setting": "[2]", "result": 403, "unit": "mg/L"},
      {"measurement": "vancomycin level in fluid drained by subfascial drain, day 1", "setting": "[2]", "result": 251, "unit": "mg/L"},
      {"measurement": "vancomycin level in fluid drained by subfascial drain, day 2", "setting": "[2]", "result": 115, "unit": "mg/L"},
      {"measurement": "vancomycin level in plasma, day 0", "setting": "[2]", "result": 2.5, "unit": "mg/L"},
      {"measurement": "vancomycin level in plasma, day 1", "setting": "[2]", "result": 1.9, "unit": "mg/L"},
      {"measurement": "vancomycin level in plasma, day 2", "setting": "[2]", "result": 1.1, "unit": "mg/L"}
    ]}
  ]
}
